Experimental data reported in ChEMBL document CHEMBL1909046, “DrugMatrix in vitro pharmacology data”.

Legend:
[1] = DRUGMATRIX: Calcium Channel Type L, Dihydropyridine radioligand binding (ligand: [3H] Nitrendipine); type: cell membranes, Rattus norvegicus, Wistar, Cerebral cortex, Membrane; conditions: Not Active = under 50% inhibition at 10 µM
[2] = molecular target: T1, Thromboxane-A synthase (Homo sapiens, UniProt P24557); test: biochemical; type: tissue-based, Platelet;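 note: enzyme inhibition assay with PGH2 supplied as substrate; in other assays of this panel Not Active means under 50% inhibition at 10 µM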
T1 sequence (P24557 whole entry): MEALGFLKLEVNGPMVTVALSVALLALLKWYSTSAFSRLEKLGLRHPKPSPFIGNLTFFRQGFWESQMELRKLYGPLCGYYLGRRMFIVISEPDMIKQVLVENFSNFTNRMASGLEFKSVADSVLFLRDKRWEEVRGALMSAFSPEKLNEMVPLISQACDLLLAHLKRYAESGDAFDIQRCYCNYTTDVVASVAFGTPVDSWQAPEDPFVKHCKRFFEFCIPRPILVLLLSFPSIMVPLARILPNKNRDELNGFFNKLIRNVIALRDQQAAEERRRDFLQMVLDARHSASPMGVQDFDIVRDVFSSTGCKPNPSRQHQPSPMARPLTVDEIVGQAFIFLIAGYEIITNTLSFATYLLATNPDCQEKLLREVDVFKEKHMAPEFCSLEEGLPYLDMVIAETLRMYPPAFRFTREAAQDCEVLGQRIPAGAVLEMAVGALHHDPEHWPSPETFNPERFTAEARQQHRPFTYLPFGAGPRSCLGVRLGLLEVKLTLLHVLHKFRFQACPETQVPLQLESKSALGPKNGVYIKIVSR

[3] = DRUGMATRIX: Tumor Necrosis Factor (TNF), Non-Selective radioligand binding (ligand: [125I] TNF-alpha); type: cell membranes, Membrane; conditions: u-937; Not Active = under 50% inhibition at 10 µM
[4] = DRUGMATRIX: Calcium Channel Type L, Phenylalkylamine radioligand binding (ligand: [3H] (-)-Desmethoxyverapamil (D-888)); type: cell membranes, Rattus norvegicus, Wistar, Brain, Membrane; conditions: Not Active = under 50% inhibition at 10 µM
[5] = molecular target: T2, C-X-C chemokine receptor type 2 (Homo sapiens, UniProt P25025); type: cell membranes, CHO-K1, Membrane; conditions: cho-k1; note: in other assays of this panel Not Active means under 50% inhibition at 10 µM
T2 sequence (P25025 whole entry): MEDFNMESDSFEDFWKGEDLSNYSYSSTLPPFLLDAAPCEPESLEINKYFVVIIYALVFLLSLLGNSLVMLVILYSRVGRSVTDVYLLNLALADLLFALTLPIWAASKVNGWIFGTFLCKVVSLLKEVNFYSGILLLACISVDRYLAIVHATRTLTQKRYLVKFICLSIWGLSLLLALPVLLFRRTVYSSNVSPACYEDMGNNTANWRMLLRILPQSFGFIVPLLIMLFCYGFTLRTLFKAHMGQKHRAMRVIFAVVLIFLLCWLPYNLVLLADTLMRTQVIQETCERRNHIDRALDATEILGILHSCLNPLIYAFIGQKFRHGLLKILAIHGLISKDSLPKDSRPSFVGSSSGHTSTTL

[6] = molecular target: Kappa-type opioid receptor (Homo sapiens, UniProt P41145); test: DRUGMATRIX: Opiate kappa (OP2, KOP) radioligand binding (ligand: [3H] Diprenorphine); type: cell membranes, HEK293, Membrane; conditions: hek293; Not Active = under 50% inhibition at 10 µM
Kappa-type opioid receptor, sequence (P41145 whole entry): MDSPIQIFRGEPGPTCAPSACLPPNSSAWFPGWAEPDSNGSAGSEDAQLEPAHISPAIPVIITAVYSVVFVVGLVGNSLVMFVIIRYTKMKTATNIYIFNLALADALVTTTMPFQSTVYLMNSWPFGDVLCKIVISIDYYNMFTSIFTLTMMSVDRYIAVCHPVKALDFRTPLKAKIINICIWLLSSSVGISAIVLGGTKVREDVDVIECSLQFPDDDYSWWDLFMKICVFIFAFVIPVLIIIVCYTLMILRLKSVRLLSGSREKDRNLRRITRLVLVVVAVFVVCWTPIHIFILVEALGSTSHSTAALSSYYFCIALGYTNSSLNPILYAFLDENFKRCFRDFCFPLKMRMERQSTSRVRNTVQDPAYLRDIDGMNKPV

[7] = molecular target: T3, 5-hydroxytryptamine receptor 1A (Rattus norvegicus, UniProt P19327); type: cell membranes, CHO-K1, Membrane; conditions: cho-k1; note: in other assays of this panel Not Active means under 50% inhibition at 10 µM
T3 sequence (P19327 whole entry): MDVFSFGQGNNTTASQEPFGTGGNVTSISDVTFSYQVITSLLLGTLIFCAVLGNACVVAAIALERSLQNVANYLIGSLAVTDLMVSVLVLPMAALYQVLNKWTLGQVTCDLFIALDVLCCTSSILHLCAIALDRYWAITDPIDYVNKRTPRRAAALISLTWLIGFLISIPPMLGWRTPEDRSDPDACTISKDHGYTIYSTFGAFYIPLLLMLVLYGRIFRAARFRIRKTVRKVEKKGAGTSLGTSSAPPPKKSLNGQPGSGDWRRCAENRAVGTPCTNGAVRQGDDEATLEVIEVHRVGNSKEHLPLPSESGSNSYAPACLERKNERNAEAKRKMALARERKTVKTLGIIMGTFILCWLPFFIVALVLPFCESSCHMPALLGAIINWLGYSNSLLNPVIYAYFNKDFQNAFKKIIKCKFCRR

CO[C@H]1O[C@@H]2O[C@@]3(C)CC[C@H]4[C@H](C)CC[C@@H]([C@H]1C)[C@@]24OO3
Not Active: IC50 [1] | Ki [1] | IC50 ([2]; platelet) | IC50 [3] | Ki [3] | IC50 [4] | Ki [4] | IC50 [5] | IC50 [6] | IC50 [7]

O=c1[nH]c2ccccc2c2ccccc12
Not Active: IC50 [1] | Ki [1] | IC50 ([2]; platelet) | IC50 [3] | Ki [3] | IC50 [4] | Ki [4] | IC50 [5] | IC50 [6] | IC50 [7]

COc1ccc(C[C@H](N)C(=O)N[C@H]2[C@@H](O)[C@H](n3cnc4c(N(C)C)ncnc43)O[C@@H]2CO)cc1 [PUROMYCIN]
Not Active: IC50 [1] | Ki [1] | IC50 ([2]; platelet) | IC50 [3] | Ki [3] | IC50 [4] | Ki [4] | IC50 [5] | IC50 [6] | IC50 [7]

CHROMIC CHLORIDE
Not Active: IC50 [1] | Ki [1] | IC50 ([2]; platelet) | Ki ([2]; platelet) | IC50 [3] | Ki [3] | IC50 [4] | Ki [4] | IC50 [5] | Ki [5] | IC50 [7] | Ki [7]

C[C@@H]1[C@H](O)[C@@H](C)/C=C/C=C/C=C/C=C/C=C/C=C/C=C/[C@H](O[C@@H]2O[C@H](C)[C@@H](O)[C@H](N)[C@@H]2O)C[C@@H]2O[C@](O)(C[C@@H](O)C[C@@H](O)[C@H](O)CC[C@@H](O)C[C@@H](O)CC(=O)O[C@H]1C)C[C@H](O)[C@H]2C(=O)O [AMPHOTERICIN B]
Not Active: IC50 [1] | Ki [1] | IC50 ([2]; platelet) | IC50 [3] | Ki [3] | IC50 [4] | Ki [4] | IC50 [5] | IC50 [6] | IC50 [7]

Cc1c(N)nc([C@H](CC(N)=O)NC[C@H](N)C(N)=O)nc1C(=O)N[C@H](C(=O)N[C@H](C)[C@@H](O)[C@H](C)C(=O)N[C@H](C(=O)NCCc1nc(-c2nc(C(=O)NCCC[S+](C)C)cs2)cs1)[C@@H](C)O)[C@@H](O[C@@H]1O[C@@H](CO)[C@@H](O)[C@H](O)[C@@H]1O[C@H]1O[C@H](CO)[C@@H](O)[C@H](OC(N)=O)[C@@H]1O)c1c[nH]cn1.[Br-] [BLEOMYCIN A2]
Not Active: IC50 [1] | Ki [1] | IC50 ([2]; platelet) | IC50 [3] | Ki [3] | IC50 [4] | Ki [4] | IC50 [5] | IC50 [6] | IC50 [7]

O=C(O)CNCP(=O)(O)O [GLYPHOSATE]
Not Active: IC50 [1] | Ki [1] | IC50 ([2]; platelet) | IC50 [3] | Ki [3] | IC50 [4] | Ki [4] | IC50 [5] | IC50 [7]

Nc1nc(F)nc2c1ncn2[C@@H]1O[C@H](CO)[C@@H](O)[C@@H]1O [FLUDARABINE]
Not Active: IC50 [1] | Ki [1] | IC50 ([2]; platelet) | IC50 [3] | Ki [3] | IC50 [4] | Ki [4] | IC50 [5] | IC50 [6] | IC50 [7]

NCC(CC(=O)O)c1ccc(Cl)cc1 (stereo not given) [BACLOFEN]
Not Active: IC50 [1] | Ki [1] | IC50 ([2]; platelet) | IC50 [3] | Ki [3] | IC50 [4] | Ki [4] | IC50 [5] | IC50 [6] | IC50 [7]

O=C(Nc1ccc(Cl)c(Cl)c1)c1cc(Cl)cc(Cl)c1O [3,3',4',5-TETRACHLOROSALICYLANILIDE]
Not Active: IC50 [1] | Ki [1] | IC50 [3] | Ki [3] | IC50 [4] | Ki [4] | IC50 [5] | IC50 [6] | IC50 [7]
4.93 µM: IC50 ([2]; read-out: IC50)

Oc1ccccc1 [PHENOL]
Not Active: IC50 [1] | Ki [1] | IC50 ([2]; platelet) | IC50 [3] | Ki [3] | IC50 [4] | Ki [4] | IC50 [5] | IC50 [6] | IC50 [7]

POVIDONE
Not Active: IC50 [1] | Ki [1] | IC50 ([2]; platelet) | Ki ([2]; platelet) | IC50 [3] | Ki [3] | IC50 [4] | Ki [4] | IC50 [5] | Ki [5] | IC50 [7] | Ki [7]

Nc1ccc(Cc2ccc(N)cc2)cc1
Not Active: IC50 [1] | Ki [1] | IC50 ([2]; platelet) | IC50 [3] | Ki [3] | IC50 [4] | Ki [4] | IC50 [5] | IC50 [7]

CARBOXYMETHYLCELLULOSE
Not Active: IC50 [1] | Ki [1] | IC50 ([2]; platelet) | Ki ([2]; platelet) | IC50 [3] | Ki [3] | IC50 [4] | Ki [4] | IC50 [5] | Ki [5] | IC50 [7] | Ki [7]

CCN1C[C@]2(COC)[C@H](O)C[C@H](OC)[C@@]34[C@@H]5C[C@@]6(O)[C@H](OC(=O)c7ccccc7)[C@@H]5[C@@](OC(C)=O)([C@@H]([C@H](OC)[C@H]23)[C@@H]14)[C@@H](O)[C@@H]6OC [ACONITINE]
Not Active: IC50 [1] | Ki [1] | IC50 ([2]; platelet) | IC50 [3] | Ki [3] | IC50 [4] | Ki [4] | IC50 [5] | IC50 [7]

ClC1=C(Cl)[C@]2(Cl)[C@@H]3[C@@H]4C[C@@H]([C@H]5O[C@@H]45)[C@@H]3[C@@]1(Cl)C2(Cl)Cl [DIELDRIN]
Not Active: IC50 [1] | Ki [1] | IC50 ([2]; platelet) | IC50 [3] | Ki [3] | IC50 [4] | Ki [4] | IC50 [5] | IC50 [7]

COPPER(II) OXIDE
Not Active: IC50 [1] | Ki [1] | IC50 ([2]; platelet) | Ki ([2]; platelet) | IC50 [3] | Ki [3] | IC50 [4] | Ki [4] | IC50 [5] | Ki [5] | IC50 [7] | Ki [7]

C=CCO [ALLYL ALCOHOL]
Not Active: IC50 [1] | Ki [1] | IC50 ([2]; platelet) | IC50 [3] | Ki [3] | IC50 [4] | Ki [4] | IC50 [5] | IC50 [7]

COc1cc([C@@H]2c3cc4c(cc3[C@H](O)[C@H]3COC(=O)[C@H]23)OCO4)cc(OC)c1OC [PODOFILOX]
Not Active: IC50 [1] | Ki [1] | IC50 ([2]; platelet) | IC50 [3] | Ki [3] | IC50 [4] | Ki [4] | IC50 [5] | IC50 [7]

C=C(Cl)Cl [1,1-DICHLOROETHENE]
Not Active: IC50 [1] | Ki [1] | IC50 ([2]; platelet) | IC50 [3] | Ki [3] | IC50 [4] | Ki [4] | IC50 [5] | IC50 [7]

C=CCN1CC[C@]23c4c5ccc(O)c4O[C@H]2/C(=N/N=C2\CC[C@@]4(O)[C@H]6Cc7ccc(O)c8c7[C@@]4(CCN6CC=C)[C@H]2O8)CC[C@@]3(O)[C@H]1C5 [NALOXONAZINE]
Not Active: IC50 [1] | Ki [1] | IC50 ([2]; platelet) | IC50 [3] | Ki [3] | IC50 [4] | Ki [4] | IC50 [5] | IC50 [7]
